Inconclusive results and toxic doses are left out. How the source made its calls: active means survival T/C of 150% or more; inactive means T/C below 125% in these data.
Tested on: CD2F1 mice, L1210 leukemia ip, survival T/C
Test: NCI In Vivo Anticancer Drug Screen. Data for tumor model L1210 Leukemia (intraperitoneal) in CD2F1 (CDF1) mice
Conditions: higher = longer survival
Summary of the method: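 Read-out first: treated-group measurement over vehicle-control measurement, expressed as a ratio. Animals bore a transplanted tumor line and were dosed with compound or vehicle.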

[1] = endpoint: mean survival time, dose: 100.0 mg/kg/injection, schedule: Q01DX009 (ip), vehicle: saline with Tween-80
[2] = endpoint: mean survival time, dose: 100.0 mg/kg/injection, schedule: Q04DX003 (ip), vehicle: saline with Tween-80
[3] = endpoint: mean survival time, dose: 200.0 mg/kg/injection, schedule: Q01DX009 (ip), vehicle: saline with Tween-80
[4] = endpoint: mean survival time, dose: 200.0 mg/kg/injection, schedule: Q04DX003 (ip), vehicle: saline with Tween-80
[5] = endpoint: mean survival time, dose: 400.0 mg/kg/injection, schedule: Q04DX003 (ip), vehicle: saline with Tween-80
[6] = endpoint: mean survival time, dose: 75.0 mg/kg/injection, schedule: Q01DX001 (ip), vehicle: other
[7] = endpoint: mean survival time, dose: 150.0 mg/kg/injection, schedule: Q01DX001 (ip), vehicle: other
[8] = endpoint: mean survival time, dose: 50.0 mg/kg/injection, schedule: Q01DX009 (ip), vehicle: saline with Tween-80
[9] = endpoint: mean survival time, dose: 100.0 mg/kg/injection, schedule: Q01DX001 (ip), vehicle: saline
[10] = endpoint: mean survival time, dose: 200.0 mg/kg/injection, schedule: Q01DX001 (ip), vehicle: saline
[11] = endpoint: mean survival time, dose: 400.0 mg/kg/injection, schedule: Q01DX001 (ip), vehicle: saline

Measured: T/C

CC(=O)Nc1ncc(C)s1
inactive: [1] 102 % of control | [2] 97 % of control | [3] 104 % of control | [4] 101 % of control | endpoint: mean survival time, dose: 400.0 mg/kg/injection, schedule: Q01DX009 (ip), vehicle: saline with Tween-80 95 % of control | [5] 101 % of control

CCCCNC(=O)NCCc1ccc(OC)c(OC)c1
inactive: [1] 87 % of control | [3] 89 % of control

CCCCCCCN=NC
inactive: [6] 96 % of control | [7] 100 % of control | endpoint: mean survival time, dose: 300.0 mg/kg/injection, schedule: Q01DX001 (ip), vehicle: other 93 % of control

NNC(=O)c1ccc(-c2ccccc2)cc1
inactive: endpoint: mean survival time, dose: 1.56 mg/kg/injection, schedule: Q01DX009 (ip), vehicle: Klucel (hydroxypropylcellulose) (HPC) 100 % of control | endpoint: mean survival time, dose: 3.13 mg/kg/injection, schedule: Q01DX009 (ip), vehicle: Klucel (hydroxypropylcellulose) (HPC) 98 % of control | endpoint: mean survival time, dose: 6.25 mg/kg/injection, schedule: Q01DX009 (ip), vehicle: Klucel (hydroxypropylcellulose) (HPC) 96 % of control | endpoint: mean survival time, dose: 12.5 mg/kg/injection, schedule: Q01DX009 (ip), vehicle: Klucel (hydroxypropylcellulose) (HPC) 102 % of control | endpoint: mean survival time, dose: 25.0 mg/kg/injection, schedule: Q01DX009 (ip), vehicle: Klucel (hydroxypropylcellulose) (HPC) 94 % of control | endpoint: mean survival time, dose: 25.0 mg/kg/injection, schedule: Q01DX009 (ip), vehicle: water 108 % of control | endpoint: mean survival time, dose: 50.0 mg/kg/injection, schedule: Q01DX009 (ip), vehicle: water 102 % of control | endpoint: mean survival time, dose: 100.0 mg/kg/injection, schedule: Q01DX009 (ip), vehicle: water 100 % of control

O=C1N(Cc2ccccc2)CCS1(=O)=O
inactive: [6] 96 % of control | [7] 106 % of control

CSc1ccc(O)c(C)c1
inactive: [2] 104 % of control | [3] 97 % of control | [4] 102 % of control | [5] 104 % of control

CCCOS(=O)(=O)c1ccc(Cl)c([N+](=O)[O-])c1
inactive: [8] 97 % of control | [1] 90 % of control | [2] 94 % of control | [4] 89 % of control

CCCCCCCCCCCCCCCCSc1cccc(C)c1
inactive: endpoint: mean survival time, dose: 100.0 mg/kg/injection, schedule: Q04DX003 (ip), vehicle: Klucel (hydroxypropylcellulose) (HPC) 95 % of control | endpoint: mean survival time, dose: 200.0 mg/kg/injection, schedule: Q04DX003 (ip), vehicle: Klucel (hydroxypropylcellulose) (HPC) 92 % of control | endpoint: mean survival time, dose: 400.0 mg/kg/injection, schedule: Q04DX003 (ip), vehicle: Klucel (hydroxypropylcellulose) (HPC) 98 % of control

O=c1c(Cl)c2cc3c(cc2c2ccccc12)nc1ccccc1n3Cc1ccc([N+](=O)[O-])cc1
inactive: endpoint: mean survival time, dose: 100.0 mg/kg/injection, schedule: Q04DX003 (ip), vehicle: saline 95 % of control | endpoint: mean survival time, dose: 200.0 mg/kg/injection, schedule: Q04DX003 (ip), vehicle: saline 106 % of control | endpoint: mean survival time, dose: 400.0 mg/kg/injection, schedule: Q04DX003 (ip), vehicle: saline 91 % of control

O=C(NC(Cc1ccc(I)cc1)C(=O)O)c1cccc(Br)c1 (stereo not drawn)
inactive: endpoint: median survival time, dose: 25.0 mg/kg/injection, schedule: Q01DX009 (ip), vehicle: Klucel (hydroxypropylcellulose) (HPC) 105 % of control | endpoint: median survival time, dose: 50.0 mg/kg/injection, schedule: Q01DX009 (ip), vehicle: Klucel (hydroxypropylcellulose) (HPC) 97 % of control | endpoint: median survival time, dose: 100.0 mg/kg/injection, schedule: Q01DX009 (ip), vehicle: Klucel (hydroxypropylcellulose) (HPC) 94 % of control | endpoint: median survival time, dose: 200.0 mg/kg/injection, schedule: Q01DX009 (ip), vehicle: Klucel (hydroxypropylcellulose) (HPC) 94 % of control

Cc1cc(N(CCCOS(C)(=O)=O)CCCOS(C)(=O)=O)ccc1C=Nc1ccc2ccccc2c1
inactive: endpoint: mean survival time, dose: 25.0 mg/kg/injection, schedule: Q01DX009 (ip), vehicle: saline with Tween-80 93 % of control | [8] 93 % of control | [1] 88 % of control

CCOC(=O)C(C)C(C)=O (stereo not drawn)
inactive: [9] 104 % of control | [10] 98 % of control | [11] 101 % of control

[O-]/[N+](=C\c1ccccc1)c1ccccc1
inactive: [2] 97 % of control | [4] 90 % of control

CC(=O)Nc1cc(C/C(N)=N/O)cc(NC(C)=O)c1
inactive: [2] 100 % of control | [4] 103 % of control | [5] 111 % of control

C(=C\c1nnnn1C12CC3CC(CC(C3)C1)C2)/c1ccccc1
inactive: [9] 104 % of control | [10] 104 % of control | [11] 96 % of control
